This passage reports IC50 and inhibition results from ChEMBL document CHEMBL3616392, “Design, synthesis and biological evaluation of novel tetrahydroisoquinoline derivatives as potential PDE4 inhibitors” (Bioorg Med Chem Lett, 2015).

pIC50: −log10 of the molar value.

The target of assay [1] is 3',5'-cyclic-AMP phosphodiesterase 4B (Homo sapiens, UniProt Q07343). The assay can be described thus: Inhibition of PDE4B isolated from human U937 cells using [3H]-cAMP as substrate after 30 mins. The class given is cell-free, U-937.
3',5'-cyclic-AMP phosphodiesterase 4B, sequence (Q07343 whole entry): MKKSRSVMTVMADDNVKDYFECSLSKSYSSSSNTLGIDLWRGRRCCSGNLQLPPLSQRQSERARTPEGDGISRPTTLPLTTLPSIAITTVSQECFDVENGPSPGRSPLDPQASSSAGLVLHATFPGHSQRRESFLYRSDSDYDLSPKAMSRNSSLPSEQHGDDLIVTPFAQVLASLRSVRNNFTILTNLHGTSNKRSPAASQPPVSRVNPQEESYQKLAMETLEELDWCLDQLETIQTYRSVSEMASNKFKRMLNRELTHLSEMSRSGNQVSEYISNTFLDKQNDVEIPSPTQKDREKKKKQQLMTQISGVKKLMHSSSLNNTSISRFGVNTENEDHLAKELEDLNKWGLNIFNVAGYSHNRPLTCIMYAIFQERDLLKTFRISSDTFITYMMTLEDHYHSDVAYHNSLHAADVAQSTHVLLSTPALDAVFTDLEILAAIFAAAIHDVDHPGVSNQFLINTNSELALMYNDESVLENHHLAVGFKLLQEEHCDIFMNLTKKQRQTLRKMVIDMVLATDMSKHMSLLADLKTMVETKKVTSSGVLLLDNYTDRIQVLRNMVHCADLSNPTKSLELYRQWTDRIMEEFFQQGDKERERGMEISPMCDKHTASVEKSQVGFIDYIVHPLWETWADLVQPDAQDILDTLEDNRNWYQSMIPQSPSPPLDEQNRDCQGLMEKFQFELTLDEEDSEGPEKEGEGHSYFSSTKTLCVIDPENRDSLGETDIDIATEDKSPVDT
Assay [2] addresses 3',5'-cyclic-AMP phosphodiesterase 4D (Homo sapiens) (UniProt Q08499). The assay can be described thus: Inhibition of PDE4D isolated from human U937 cells using [3H]-cAMP as substrate at 20 uM after 30 mins. It counts as cell-free. Particulars: U-937.

3',5'-cyclic-AMP phosphodiesterase 4D (Homo sapiens), sequence (Q08499 whole entry): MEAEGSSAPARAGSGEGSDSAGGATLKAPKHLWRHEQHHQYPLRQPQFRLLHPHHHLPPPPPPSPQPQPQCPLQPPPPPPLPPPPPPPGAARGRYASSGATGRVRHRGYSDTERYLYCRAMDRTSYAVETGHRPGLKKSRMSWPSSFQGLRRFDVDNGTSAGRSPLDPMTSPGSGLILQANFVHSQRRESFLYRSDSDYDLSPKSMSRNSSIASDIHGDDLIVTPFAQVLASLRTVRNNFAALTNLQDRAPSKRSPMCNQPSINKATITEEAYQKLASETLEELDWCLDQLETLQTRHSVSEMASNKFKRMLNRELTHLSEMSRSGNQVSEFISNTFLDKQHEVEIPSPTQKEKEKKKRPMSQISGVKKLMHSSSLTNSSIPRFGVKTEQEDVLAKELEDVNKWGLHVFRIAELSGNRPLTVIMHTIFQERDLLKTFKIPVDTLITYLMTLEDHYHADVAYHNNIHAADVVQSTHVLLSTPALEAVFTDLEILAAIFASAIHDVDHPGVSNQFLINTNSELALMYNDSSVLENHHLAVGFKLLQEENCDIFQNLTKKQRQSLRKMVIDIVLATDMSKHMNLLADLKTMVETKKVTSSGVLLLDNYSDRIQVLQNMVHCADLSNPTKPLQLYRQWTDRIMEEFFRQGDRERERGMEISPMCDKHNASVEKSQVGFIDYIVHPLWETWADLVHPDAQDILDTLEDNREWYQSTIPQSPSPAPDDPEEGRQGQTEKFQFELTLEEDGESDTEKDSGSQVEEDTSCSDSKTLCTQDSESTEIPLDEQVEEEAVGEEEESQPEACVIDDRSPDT

A word on the pIC50: it is the IC50 on a negative log10 scale, so that one unit is a factor of ten. Read a high pIC50 as a small IC50. `COc1cc2c(cc1OC1CCCC1)CN(Cc1ccccc1F)CC2` showed a pIC50 in assay [1] of 4.37.

In assay [1], `COc1cc2c(cc1OC1CCCC1)CN(C(=O)[C@H]1CC[C@H](N)CC1)CC2` had a negative-log IC50 (pIC50) below 4.30.

In general, inhibition refers to the percentage by which the read-out fell short of the control. Read a low inhibition as a weak effect. On to `COc1cc2c(cc1OC1CCCC1)CN(C(=O)c1ccccc1Cl)CC2`, for which, in assay [1], the pIC50 is 4.81. Moreover, the inhibition in assay [2] turned out to be 15.3%.

`COc1cc(C(=O)N2CCc3cc(OC)c(OC4CCCC4)cc3C2)ccc1O` had a pIC50 in assay [1] of 5.64. Also, the inhibition in assay [2] was determined as 17.4%.

Take `COc1cc2c(cc1OC1CCCC1)CN(C(=O)c1ccccc1F)CC2`: the negative logarithm of the IC50 (pIC50) in assay [1] was 4.63.

In assay [1], `COc1cc2c(cc1OC1CCCC1)CN(C(=O)C1=C[C@@H](O)[C@@H](O)[C@H](O)C1)CC2` had a pIC50 below 4.30.

Regarding `COc1cc2c(cc1OC1CCCC1)CN(Cc1ccncc1)CC2`, in assay [1], the pIC50 is 4.42.

`COc1cc2c(cc1OC1CCCC1)CN(C(=O)c1ccccc1OC)CC2` had a negative-log IC50 (pIC50) in assay [1] of 4.43.

In assay [1], `COc1cc2c(cc1OC1CCCC1)CN(C(=O)c1ccncc1)CC2` showed a negative logarithm of the IC50 (pIC50) of 4.80. This molecule had an inhibition in assay [2] of 12.1%.

`COc1cc2c(cc1OC1CCCC1)CN(C(=O)c1ccccc1)CC2`: in assay [1], the negative logarithm of the IC50 (pIC50) was 4.63.

In assay [1], `COc1cc(CN2CCc3cc(OC)c(OC4CCCC4)cc3C2)ccc1O` had a pIC50 of 4.57.

In assay [1], `COc1cc2c(cc1OC1CCCC1)CN(C(=O)c1ccccn1)CC2` showed a negative-log IC50 (pIC50) of 4.42.
